Consider two molecules from US20160346255A1, “METHODS, AGENTS AND COMPOSITIONS FOR TREATMENT OF INFLAMMATORY CONDITIONS” (Betanien Hospital, priority 2014, published 2016).

Common to all, as to format: in vivo, human
Test [1] concerns Patient with Psoriatic Arthritis. In words: Psoriatic arthritis patient treated with oral ASP1707. The following applies: 3 mg daily for 12 weeks; response at 4 months. As for the experimental part:
• person with psoriatic arthritis • Fulfills CASPAR 2006 classification criteria for psoriatic arthritis.
• Is offered experimental GnRH antagonist therapy, ASP1707 3 mg daily for 12 weeks.

The test system of test [2] is patient with cancer-related inflammation. The experiment in a line: Cancer-related inflammation, colon cancer patient treated with oral ASP1707. Particulars: 8 mg daily, at 3 months. The text has this:
• person with colon cancer with disease duration of 1 year. Suffers from signs and symptoms of cancer-related inflammation, such as pain, anorexia, and fatigue.

Test [3] has as its system post-menopausal female with rheumatoid arthritis. In words: Post-menopausal RA patients on methotrexate, oral ASP1707 30 mg twice daily for 12 weeks. Particulars: ASP1707+MTX; Week 12; assuming placebo+MTX 30%.
Method: • Patient is offered experimental GnRH antagonist therapy, ASP1707 30 mg twice daily for 12 weeks orally. Primary Assessment is ACR20 response rate at 12 weeks.
Test [4] relates to Patient with Spondyloarthritis. In words: Spondyloarthritis patient treated with oral relugolix. Particulars: 400 mg daily; at 12 weeks, remission; baseline 5. The method, then:
• person with spondyloarthritis with disease duration of 5 years.
• Is offered experimental GnRH antagonist therapy, relugolix 400 mg daily for 12 weeks.
• Disease activity in ankylosing spondylitis/spondyloarthritis is measured by the BASDAI score. His BASDAI is 5 at baseline.

SMILES strings stand for the structures.

On to `C[C@@H](O)C(=N)NS(=O)(=O)c1cc(C(=O)C(C(=O)c2cc(F)ccc2F)=C2Nc3ccccc3N2)ccc1F` [ASP1707, (2R)—N-({5-[3-(2,5-difluorophenyl)-2-(1,3-dihydro-2H-benzoimidazol-2-ylidene)-3-oxopropanoyl]-2-fluorophenyl}sulfonyl)-2-hydroxypropanimidamide], for which the DAS reduction entry in test [1] is given as “over 0.6 units”. Besides, the “Signs and symptoms of cancer related inflammation (pain, anorexia, fatigue)” value in test [2] is given as “reduced”. For the same molecule, the CRP in test [2] (baseline 40 mg/L) is 12 mg/L. Also, in test [3], the ACR20 response rate turned out to be 60%.

Molecule `CONC(=O)Nc1ccc(-c2sc3c(c2CN(C)C)c(=O)n(-c2ccc(OC)nn2)c(=O)n3Cc2c(F)cccc2F)cc1` [relugolix] showed a BASDAI in test [4] of 1.2.
